Assay [1] concerns R4A mouse autoantibody. In words: competitive ELISA, R4A autoantibody binding to its antigens. Particulars: in vitro; for inhibition of R4A binding to DWEYS peptide: antigen DWEYS peptide, FIG. 1B; for inhibition of R4A binding to dsDNA: antigen dsDNA, FIG. 1C. The source says: (§1) FIG. 1A-1E. Compound 12W inhibits antigen recognition by systemic lupus erythematosus (SLE) autoantibodies. A) Structures of Compound 12W and WEY peptide (i.e., a tripeptide identical to the pentapeptide DWEYS (SEQ ID NO:1) less the carboxyl serine residue and the amino terminal aspartate of the pentapeptide). B) R4A mouse autoantibody binding to DWEYS (SEQ ID NO:1) peptide. C) R4A mouse autoantibody binding to DNA. D) G11 human autoantibody binding to DWEYS (SEQ ID NO:1) peptide. E) G11 human autoantibody binding to DNA. In B)-E), antibody binding in the presence of DWEYS peptide is shown in the right plot in each figure. Compound 12W inhibits binding as shown by the left plot in each figure.
On the technique in general: In an ELISA, binding on a coated surface is turned into a signal by an enzyme label.

The test system of assay [2] is R4A antibody. In words: R4A binding to mouse kidney glomeruli in situ. As to conditions: for inhibition of R4A binding to mouse kidney glomeruli: antibody pre-incubated, presence and absence of DNAse, FIG. 2A. An excerpt: FIG. 2A-2B. Compound 12W inhibits SLE autoantibody binding to glomeruli in situ. A) Data with R4A. B) Data with G11. From left to right: control, +DNAse, +Compound 12W, +DNAse+Compound 12W.
The kidney is a major target organ in SLE, with renal disease occurring in approximately 50% of patients. Glomerular deposition of circulating autoantibodies leads to a cascade of inflammatory events including renal infiltration by activated immune cells, activation of dendritic cells through Toll-like receptors and pro-inflammatory cytokine production (Bagavant and Fu 2009), which can culminate in end-stage renal disease. […] The R4A and G11 antibodies, as well as other pathogenic lupus antibodies, bind to both DNA and non-DNA antigens present in kidney glomeruli ex vivo. […] To test if Compound 12W could block the binding of the R4A antibody to its renal antigens in situ, the R4A antibody was incubated with mouse kidney glomeruli in the presence and absence of Compound 12W and its binding measured by detection with fluorescently-conjugated secondary antibodies.

Assay [3] concerns R4A antibody. Particulars: literature; cited from earlier work.
For assay [4], the system named is anti-dsDNA/NMDAR G11/R4A/human lupus antibody. As to conditions: mice; Gaynor et al. 1997, Huerta et al. 2006; cited from earlier work.
For assay [5], the system named is G11 human autoantibody. In words: competitive ELISA, G11 autoantibody binding to its antigens.
From the text: as §1

The test system of assay [6] is anti-BSA antibody. The experiment in a line: binding of an anti-BSA antibody to BSA (specificity control). As to conditions: data not shown.
The test system of assay [7] is R4A or G11 antibodies. In words: neurotoxicity of intracerebrally injected lupus autoantibodies, TUNEL staining. Format: in vivo, mice. The procedure:
FIG. 3. Compound 12W inhibits neurotoxicity of autoantibodies. The lupus autoantibodies caused significant neuronal apoptosis, as indicated by positive TUNEL staining (right panels).
Both R4A and G11 cause excitotoxic death of neurons in the mouse hippocampus (Zhang et al. 2009). Therefore, the ability of Compound 12W to negate the neurotoxicity of these autoantibodies was assayed. To test the neuroprotective potential of Compound 12W, mice were injected intracerebrally with R4A or G11 antibodies in the presence and absence of Compound 12W. As shown previously, the lupus autoantibodies caused significant neuronal apoptosis, as indicated by positive TUNEL staining (FIG. 3, upper and lower right panels). […] The neuroprotective dose of Compound 12W was 2 logs less than that previously used to achieve similar neuroprotection with the DWEYS (SEQ ID NO:1) peptide (Huerta et al. 2006).

Assay [8] has as its system autoantibodies present in serum from multiple lupus patients. In words: competitive ELISA, lupus patient sera binding to DWEYS peptide. Set-up: species or system human. Particulars: sera pre-incubated, FIG. 4. The procedure:
FIG. 4. Compound 12W inhibits autoantibodies present in human SLE sera. Inhibition of human SLE sera binding to antigens in vitro.
(§2) The studies above tested the ability of Compound 12W to neutralize monoclonal antibodies derived from mouse or human lupus sera. It was next tested whether Compound 12W would be similarly effective in inhibiting the polyclonal autoreactivity present in lupus patient sera (FIG. 4). Sera from lupus patients were pre-incubated with the Compound 12W and binding to DWEYS (SEQ ID NO:1) and dsDNA was then assayed in a competitive ELISA. […] The ability of Compound 12W to inhibit binding of lupus sera to mouse kidney glomeruli was also assayed.

Assay [9] has as its system human lupus sera. In words: binding of lupus sera to mouse kidney glomeruli. Particulars: data not shown. The procedure: as §2
Assay [10] concerns anti-dsDNA/NMDAR G11/R4A/human lupus antibody. The experiment in a line: glomerular deposition of anti-dsDNA/NMDAR antibody in vivo. Set-up: species or system SCID mice. The procedure:
In order to test if Compound 12W was also effective at protecting the kidney, a major target organ in lupus, from antibody deposition, the anti-dsDNA/NMDAR G11/R4A/human lupus antibody was administered to SCID mice in the absence and presence of Compound 12W and glomerular deposition was measured.

Entries after “also recorded” stand apart in the source; their conditions may differ.

For the compound “DWEYS peptide: pentapeptide DWEYS (SEQ ID NO:1), antigen/mimetope recognised by anti-dsDNA/NMDAR lupus autoantibodies (listed as Homo sapiens) [reference compound]”, in [1], the “inhibition of R4A binding to DWEYS peptide” value is “inhibitable by DWEYS (SEQ ID NO:1) peptide at mM concentrations” and the “inhibition of R4A binding to dsDNA” value is “inhibitable by DWEYS (SEQ ID NO:1) peptide at mM concentrations”. For the same compound, in assay [2], the “inhibition of R4A binding to mouse kidney glomeruli” value is given as “could be mimicked by pre-incubation of the R4A antibody with the DWEYS (SEQ ID NO:1) peptide at mM concentrations”. The “glomerular binding by R4A blocked (Gaynor et al 1997)” value in assay [3] is on record as “can be blocked”. Moreover, the “renal (and brain) deposition of anti-DNA/NMDAR antibodies in vivo, literature” value in assay [4] was “blocks renal and brain deposition of anti-DNA/NMDAR antibodies in mice; also recorded: able to block binding of the anti-dsDNA antibodies to kidneys in vivo”.
For the compound `CC(C)(C)NCC1CC2CCCCC2CN1CC(O)C(Cc1ccccc1)NCC(CCN)NCC1Nc2ccccc2CC1O` (centres unmarked) [Compound 12W, 2-((4-amino-1-(4-(3-((tert-butylamino)methyl)octahydroisoquinolin-2(1H)-yl)-3-hydroxy-1-phenylbutan-2-ylamino)butan-2-ylamino)methyl)-1,2,3,4-tetrahydroquinolin-3-ol], in [1], the “inhibition of R4A binding to DWEYS peptide” value is given as “able to inhibit R4A binding to these same antigens at nM concentrations” and the “inhibition of R4A binding to dsDNA” value is “able to inhibit R4A binding to these same antigens at nM concentrations”. Further, the “inhibition of G11 binding to DNA” value in assay [5] (antigen DNA, FIG. 1E) is given as “inhibited G11 binding at similar concentrations to its effect on R4A binding”. Also, the “inhibition of G11 binding to DWEYS peptide” value in assay [5] (antigen DWEYS peptide, FIG. 1D) is “inhibited G11 binding at similar concentrations to its effect on R4A binding”. Also, the “inhibition of binding of an anti-BSA antibody to BSA” value in [6] is reported as “failed to inhibit binding”. Further, the “inhibition of R4A binding to mouse kidney glomeruli” value in [2] is “Dramatically less binding was observed to both DNA and non-DNA antigens”. The “dose dependence of inhibition of R4A binding to glomeruli” value in [2] (data not shown) is “dependent on the dose”. For the same compound, the “neuroprotective dose relative to that previously used with the DWEYS peptide” value in assay [7] (less than DWEYS peptide dose (Huerta et al. 2006)) is 2 logs. Further, the “neuronal apoptosis caused by lupus autoantibodies (TUNEL staining)” value in assay [7] (mice, intracerebral co-administration with R4A or G11, FIG. 3) is given as “blocked the neurotoxic effects of the lupus antibodies”. The “inhibition of lupus patient sera binding to DWEYS peptide” value in assay [8] was “able to inhibit binding”. Also, the “inhibition of binding of human lupus sera to mouse kidney glomeruli” value in assay [9] was “blocked binding of human lupus sera to kidney antigens”. Also, the “autoantibody binding to renal tissue in vivo” value in assay [10] is “blocked autoantibody binding to renal tissue both ex vivo and in vivo”.

Values taken from US9096576B2, “Compounds and methods for treatment of systemic lupus erythematosus” (The Feinstein Institute For Medical Research, priority 2010, dated 2015).
